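Where inhibition never reached the appropriate level, the endpoint shown equals the highest concentration tested. Otherwise, values were interpolated linearly from a five-concentration, 48-hour dose response in 96-well plates. TGI: total growth inhibition.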
How the values were obtained:
Assay in all cases: NCI anticancer screen, dose series, 48 h
MOLT-4 leukemia = tested on: MOLT-4 leukemia
HCT-116 colon = tested on: HCT-116 colon
CCRF-CEM leukemia = tested on: CCRF-CEM leukemia
U251 CNS = tested on: U251 CNS
EKVX NSCLC = tested on: EKVX NSCLC
SN12C renal = tested on: SN12C renal
K-562 leukemia = tested on: K-562 leukemia
A498 renal = tested on: A498 renal
NCI-H522 lung = tested on: NCI-H522 lung
SNB-19 CNS = tested on: SNB-19 CNS
IGROV1 ovarian = tested on: IGROV1 ovarian
TK-10 renal = tested on: TK-10 renal
SK-MEL-28 melanoma = tested on: SK-MEL-28 melanoma
HS 578T breast = tested on: HS 578T breast
SK-OV-3 ovarian = tested on: SK-OV-3 ovarian
HCC-2998 colon = tested on: HCC-2998 colon
CAKI-1 renal = tested on: CAKI-1 renal
SW-620 colon = tested on: SW-620 colon
RPMI-8226 leukemia = tested on: RPMI-8226 leukemia
OVCAR-4 ovarian = tested on: OVCAR-4 ovarian
LOX IMVI melanoma = tested on: LOX IMVI melanoma
NCI-H23 lung = tested on: NCI-H23 lung
SF-295 CNS = tested on: SF-295 CNS
OVCAR-3 ovarian = tested on: OVCAR-3 ovarian
MDA-N = tested on: MDA-N
OVCAR-5 ovarian = tested on: OVCAR-5 ovarian
UACC-62 melanoma = tested on: UACC-62 melanoma
SF-539 CNS = tested on: SF-539 CNS
COLO 205 colon = tested on: COLO 205 colon
MALME-3M melanoma = tested on: MALME-3M melanoma
DU-145 prostate = tested on: DU-145 prostate
OVCAR-8 ovarian = tested on: OVCAR-8 ovarian
HL-60(TB) leukemia = tested on: HL-60(TB) leukemia
786-0 renal = tested on: 786-0 renal
RXF 393 renal = tested on: RXF 393 renal
HCT-15 colon = tested on: HCT-15 colon
UACC-257 melanoma = tested on: UACC-257 melanoma
PC-3 prostate = tested on: PC-3 prostate
MDA-MB-231 breast = tested on: MDA-MB-231 breast
A549 NSCLC = tested on: A549 NSCLC
SK-MEL-5 melanoma = tested on: SK-MEL-5 melanoma
MCF7 breast = tested on: MCF7 breast
KM12 colon = tested on: KM12 colon
NCI/ADR-RES ovarian = tested on: NCI/ADR-RES ovarian
SK-MEL-2 melanoma = tested on: SK-MEL-2 melanoma
MDA-MB-435 = tested on: MDA-MB-435
HOP-62 NSCLC = tested on: HOP-62 NSCLC
SNB-75 CNS = tested on: SNB-75 CNS
UO-31 renal = tested on: UO-31 renal
NCI-H460 lung = tested on: NCI-H460 lung
HT29 colon = tested on: HT29 colon
T-47D breast = tested on: T-47D breast
ACHN renal = tested on: ACHN renal
BT-549 breast = tested on: BT-549 breast
SR leukemia = tested on: SR leukemia
SF-268 CNS = tested on: SF-268 CNS
M14 melanoma = tested on: M14 melanoma
NCI-H226 lung = tested on: NCI-H226 lung

Measured: TGI

COC(=O)CNS(=O)(=O)c1ccc(-c2c3nc(c(-c4ccc(S(=O)(=O)NCC(=O)OC)cc4)c4ccc([nH]4)c(-c4ccc(S(=O)(=O)NCC(=O)OC)cc4)c4nc(c(-c5ccc(S(=O)(=O)NCC(=O)OC)cc5)c5ccc2[nH]5)C=C4)C=C3)cc1
41.9 µM: M14 melanoma
not listed: NCI-H226 lung
> 100 µM: all other assays above

OCC(O)C(Cl)CCl (centres undefined)
not listed: A498 renal | RPMI-8226 leukemia | LOX IMVI melanoma | RXF 393 renal | SK-MEL-2 melanoma | MDA-MB-435
> 100 µM: all other assays above

— PubChem BioAssay (NCI)
